# Data from US8557776B2, “Compounds and methods for 18F labeled agents” (Bayer Pharma AG, priority 2006, dated 2013).
# *1 amine or outer side, *2 acyl side, *3 side chain or, on linkers, in order; H or OH if unused. Where a SMILES comes first, the peptide text is derived from it. [ ]: non-standard residue; d: D form. The star is where a group is joined. γ4hIle = CC[C@H](C)[C@@H](CCC(=O)[*:2])N[*:1]; Benzoyl(3-CN,4-F) = N#Cc1cc(C(=O)*)ccc1F; Ava = NCCCCC(=O)O
# Columns and labels:
# [1] = test system: human prostate cancer PC-3; assay: Biodistribution of F-18-Bombesin Analog in nude mice bearing human prostate cancer PC-3; assay type: in vivo
# Procedure: Nude mice bearing human prostate cancer PC-3 were injected with 100 μl radioactive peptide dissolved in PBS containing 135 kBq per animal. For blocking 100 μg unlabeled gastrin-releasing peptide was co-injected. One hour post injection the animals were sacrificed and organs dissected for counting in a gamma-counter. Values are expressed as percent of the injected dose per gram organ weight.
Compound,Panc. % (Table 1),Tumor/Tissue-Ratios T/Blood ([1]; 1 h Blocking: 100 μg unlabeled gastrin-releasing peptide co-injected),Tumor/Tissue-Ratios T/Blood ([1]; 1 h post injection),"tumor-tissue ratio relative to that of 18F-choline (FCH) and 18F-FB-Lys-BN ([1]; FIG. 8, protocol as above) [time higher]","accumulation in tumor (in words) ([1]; PC-3 tumor, 1 h post injection)",specificity of targeting (in words) ([1]; blocking values low in tumor on co-injection of gastrin-releasing peptide)
"3-CF3,4-F-Benzoyl-Arg-Ava-Gln-Trp-Ala-Val-NMeGly-His-Sta-Leu-NH2 (SEQ ID NO: 421) (RXQWAVGHXL; 3-CF3,4-F-benzoyl N-cap, Ava, NMeGly, Sta, C-amide)","1,42%",,,,,
"CC[C@H](C)[C@@H](CCC(=O)N[C@@H](CC(C)C)C(N)=O)NC(=O)[C@H](Cc1c[nH]cn1)NC(=O)CNC(=O)[C@@H](NC(=O)[C@H](C)NC(=O)[C@H](Cc1c[nH]c2ccccc12)NC(=O)[C@H](CCC(N)=O)NC(=O)CCCCNC(=O)c1ccc(F)c(C#N)c1)C(C)C [F-18-Bombesin Analog] ({Benzoyl(3-CN,4-F)-Ava}-QWAVGH[γ4hIle]L-NH2; N-terminus assumed)",,1.57 ± 0.22,21.03 ± 11.92,2.5,accumulates in tumor,specific
